# Source: paper PMC9850456, “Click-designed vanilloid-triazole conjugates as dual inhibitors of AChE and Aβ aggregation” (RSC Advances, 2023)
# Tests used:
# hAChE = target: T1, hAChE (Homo sapiens, UniProt P22303); test: biochemical; conditions: mean ± standard deviation; read-out: IC50 ± SD AChE
# T1 construct: purchased BioVision ('Bio Vision, Egypt' [sic]; address 155 S. Milpitas Blvd., Milpitas, CA) K197-100
# Method: The synthesized compounds were assayed to determine their ability to inhibit hAChE using (K197-100, Bio Vision, Egypt)1. A 96-well plate was used by applying the spectroscopic method of Ellman1, and […]
# The compounds were dissolved in a small amount of DMSO to obtain a concentration range of 0.01-10 μM. Each well contained 160 μl of dithiobis-(2-nitrobenzoic acid) (Ellman's reagent, DTNB), 10 μl of the tested compound and 50 μl hAChE solution, while Blank wells contained 160 μl DTNB, 10 μl DMSO, and 50 μl buffer (1 M, pH=8.0, Tris-HCl) . 100% ChE activity (100% activity) contained 160 μl DTNB, 2 μl DMSO, 8 μl buffer and 50 μl hAChE. After 5 min of incubation at 25 […]
# Two time points (t1 and t2) in the linear range of the plot were chosen and the corresponding values for the absorbance (OD1 and OD2) were obtained.
# The percentage of relative inhibition was calculated from the following equation:
# % Relative Inhibition = Slope of[ EC]−Slope of [S] /Slope of[EC ] X100
# % Relative Activity = Slope of [S] /Slope of [EC] X100
# Where: S, is Sample Screen; EC, is Enzyme Control. […]
# Beta-Amyloid (1–42) = target: T2, Beta-Amyloid (1–42) (Homo sapiens, UniProt P05067); test: biochemical; conditions: Aβ aggregation, Thioflavin T; mean ± standard deviation; read-out: IC50 ± SD Aβ42 inhibition
# T2 construct: SensoLyte® Thioflavin T Beta-Amyloid (1–42) Aggregation Kit; purchased ANASPEC Inc., Fremont, CA, USA
# T2 sequence (P05067 672-713): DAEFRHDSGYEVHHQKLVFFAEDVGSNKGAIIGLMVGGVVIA
# Method: The β-amyloid aggregation inhibition was measured using the fluorometric SensoLyte® Thioflavin T Beta-Amyloid (1–42) Aggregation Kit (ANASPEC Inc., Fremont, CA., USA) according to the manufacturer's instructions. […]
# 2. In Vitro Amyloid-β Aggregation Assay
# Amyloid-β (1–42) aggregation was measured using the SensoLyte ® Thioflavin T β-Amyloid aggregation kit (AnaSpec, Fremont, CA, USA) 2, according to the manufacturer’s instructions. The assay is based on the property of the Thioflavin T dye, the fluorescence of which increases when it is bound to aggregates of amyloid-β (1 –42) peptides. Briefly, Thioflavin T was dissolved in assay buffer [10 mM Phosphate/150 mM NaCl (pH=8.0)] and used at a concentration of 100 μM. Samples were dissolved in assay buffer, 5 μL of the sample and 85 μL of amyloid-β (1–42) were mixed, followed by the addition of 10 μL of 2mM Thioflavin T.
# Thioflavin T fluorescence was measured at intervals of 10 min for 2 h, with an excitation /emission =440 […]
# All fluorescence readings are expressed in relative fluorescence units (RFU).
# Morin was used as a positive control. Experiments were performed in triplicate and averaged, and the percentage of inhibition of amyloid-β aggregation was calculated according to the following equation:
# % Relative Inhibition = (RFU of PC - RFU of S)/ ([…]) x 100
# Where: PC, is the Peptide Positive Control or Solvent Control; S, is Sample Screen.
# IC50 was generated by plotting the values of percent inhibition against their corresponding logarithmic concentration. Best fitted line was determined and IC50 was calculated from its equation.
# T1 sequence (P22303 32-614): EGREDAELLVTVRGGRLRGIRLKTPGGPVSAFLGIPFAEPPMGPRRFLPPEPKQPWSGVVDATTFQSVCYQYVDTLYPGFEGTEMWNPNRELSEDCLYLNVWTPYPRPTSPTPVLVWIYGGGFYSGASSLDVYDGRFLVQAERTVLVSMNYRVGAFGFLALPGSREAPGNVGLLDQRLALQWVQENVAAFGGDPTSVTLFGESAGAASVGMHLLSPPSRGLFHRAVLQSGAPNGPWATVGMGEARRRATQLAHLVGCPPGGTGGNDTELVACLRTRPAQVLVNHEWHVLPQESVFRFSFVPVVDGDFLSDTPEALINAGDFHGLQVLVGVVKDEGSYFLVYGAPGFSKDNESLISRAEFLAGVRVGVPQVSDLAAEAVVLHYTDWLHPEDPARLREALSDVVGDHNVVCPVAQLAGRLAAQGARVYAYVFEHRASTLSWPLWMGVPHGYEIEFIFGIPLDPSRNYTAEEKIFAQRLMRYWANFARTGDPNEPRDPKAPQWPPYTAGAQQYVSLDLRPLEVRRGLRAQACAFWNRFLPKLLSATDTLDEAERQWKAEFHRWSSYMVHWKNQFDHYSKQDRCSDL
SMILES,IC50 (hAChE),IC50 (Beta-Amyloid (1–42))
"COc1cc(Cn2cc(COc3ccc(C=O)cc3OC)nn2)ccc1O [Compound 1, 4-((1-(3-methoxy-4-hydroxybenzyl)-1H-1,2,3-triazol-4-yl)methoxy)-3-methoxybenzaldehyde]",14200 ± 720 nM,4850 ± 240 nM
"C=CCc1ccc(OCc2cn(Cc3ccc(O)c(OC)c3)nn2)c(OC)c1 [Compound 2, 4-((4-((4-allyl-2-methoxyphenoxy)methyl)-1H-1,2,3-triazol-1-yl)methyl)-2-methoxyphenol]",26800 ± 1350 nM,22700 ± 1140 nM
"COc1cc(Cn2cc(COc3ccc(C=CC=O)cc3OC)nn2)ccc1O [Compound 3, 4-((1-(3-methoxy-4-hydroxybenzyl)-1H-1,2,3-triazol-4-yl)methoxy)-3-methoxyphenyl acrylaldehyde]",5530 ± 280 nM,2860 ± 140 nM
"CCOC(=O)c1ccc(OCc2cn(Cc3ccc(O)c(OC)c3)nn2)c(OC)c1 [Compound 4, 4-((1-(3-methoxy-4-hydroxybenzyl)-1H-1,2,3-triazol-4-yl)methoxy)-3-methoxy-ethyl benzoate]",2110 ± 120 nM,1590 ± 80 nM
"COc1cc(Cn2cc(COc3ccc(C(=O)O)cc3OC)nn2)ccc1O [Compound 5, 4-((1-(3-methoxy-4-hydroxybenzyl)-1H-1,2,3-triazol-4-yl)methoxy)-3-methoxybenzoic acid]",2110 nM,1480 ± 70 nM
"CCOC(=O)C=Cc1ccc(OCc2cn(Cc3ccc(O)c(OC)c3)nn2)c(OC)c1 [Compound 6, ethyl 4-((1-(3-methoxy-4-hydroxybenzyl)-1H-1,2,3-triazol-4-yl)methoxy)-3-methoxyphenyl acrylate]",2520 ± 130 nM,3060 ± 150 nM
"COc1cc(Cn2cc(COc3ccc(C=CC(=O)O)cc3OC)nn2)ccc1O [Compound 7, 4-((1-(3-methoxy-4-hydroxybenzyl)-1H-1,2,3-triazol-4-yl)methoxy)-3-methoxyphenyl acrylic acid]",10600 ± 530 nM,4480 ± 220 nM
"COc1cc(Cn2cc(COC(=O)c3ccc(O)c(OC)c3)nn2)ccc1O [Compound 8, (1-(4-hydroxy-3-methoxybenzyl)-1H-1,2,3-triazol-4-yl)methyl 4-hydroxy-3-methoxy benzoate]",1200 ± 60 nM,950 ± 50 nM
"COc1cc(/C=C/C(=O)OCc2cn(Cc3ccc(O)c(OC)c3)nn2)ccc1O [Compound 9, (E)-(1-(4-hydroxy-3-methoxybenzyl)-1H-1,2,3-triazol-4-yl)methyl 3-(4-hydroxy-3 methoxyphenyl)acrylate]",470 ± 20 nM,310 ± 20 nM
